Measured values taken from patent US9259418B2 (priority 2008, dated 2016).

Legend:
MPTP treated mice [1] = experiment: Striatal dopamine levels in MPTP treated mice (HPLC); format: in vivo; settings: for dose required to restore dopamine levels when administered alone: MPTP challenged mice, data not shown
Protocol: Striatum tissue samples were homogenized in ice in 500 ul homogenization buffer (0.1M perchloric acid, 0.02% EDTA and 1% ETOH) using OMNI Tip homogenizing kit of OMNI International (intermediate speed, 3×10 seconds with 5 seconds intervals). The homogenates were sonicated for 5 minutes then centrifuged at 15,000 RPM at 4° C. for 15 min. The supernatants were transferred into fresh tubes and Dopamine content was analyzed by HPLC.
Saline-injected mice are used as control (naïve mice).

MPTP treated mice [2] = experiment: Locomotion activity by Rota rod in MPTP treated mice; format: in vivo; settings: day 5, MPTP alone
Protocol: Saline-injected mice are used as control (naïve mice). Mice were treated according to the following plan:
FIGS. 3A-B show the locomotion activity as tested by Rota rod latency (FIG. 3A) and Rota rod distance (FIG. 3B) on day 5 of the study (5 drug administrations).

PC12 cells [3] = experiment: In vitro neuroprotection assay, serum-free medium induced apoptosis, MTT test; format: cell-based, rat; settings: serum starved PC12 cells, drugs alone or as DRA + MAO inhibitor combination
Protocol: (§1) For neuroprotection experiment cells were plated (1 or 0.5×10^5 Cells per well) on poly-L-lysine (Sigma) coated 96 wells tissue culture plates. Twenty four hours after plating the medium was exchanged with fresh growth medium with or without the tested drugs in the absence or presence of stressor. Cell cytotoxicity was induced by either serum starvation or Methyl-4phenylpyridium (MPP^+), 250 uM and 125 uM for PC12 and SK cells respectively. Drugs were added in different concentration alone and in combination, 30 minutes prior to the insult for a subsequent 48 or 72 hours. Neuronal cell injury was evaluated by a colorimetric assay for mitochondrial function using the MTT test (Sigma). The MTT test is based on the conversion of MTT to blue formasan crystals by viable cells. 5 mg/ml MIT reagent was added to each well (1:10 final dilution in each well). Cells were incubated for 1 hour at 37° C. and 5% CO2. Excess MIT was removed, and remaining formasan crystals were dissolved in 50 ul DMSO and were quantified in Elisa reader. The wavelength of the measurement of formasan product was 550 nm and the reference wavelength was 620 nm.
(§2) (a) PC12 and SK-N-SH Cells were incubated with 3 different concentrations of MPP+(125, 250, and 500 μM) or in growth medium lacking serum for 48 and 72 hours.
(§3) (b) Various drug combinations at various drug ratios as stated above were tested. The concentrations used were as follows: ropinirole, 400 μM, 200 μM, 100 μM, 50 μM; rasagiline, 400 μM, 200 μM, 100 μM, 50 μM, 10 μM; pramipexole, 400 μM, 200 μM, 100 μM, 50 μM; selegiline, 100, 50 μM, 10 μM, 1. Cell protection was detected by MTT.
(§4) The combinations used to treat serum-free medium induced apoptosis were ropinirole, 200 μM: rasagiline, 50 μM; ropinirole, 100 μM: rasagiline, 10 μM (FIG. 1A); pramipexole, 200 μM selegiline, 50 μM; pramipexole, 100 μM: selegiline, 10 μM (FIG. 1B); ropinirole, 200 μM: selegiline, 50 μM; and ropinirole, 100 μM: selegiline, 10 μM (FIG. 1C). […]

PC12 cells [4] = experiment: In vitro neuroprotection assay, MPP+ induced apoptosis, MTT test; format: cell-based, rat; settings: MPP+ treated PC12 cells, drugs alone or as DRA + MAO inhibitor combination
Protocol: as §1, §2, §3, §4

Row | SMILES | dose required to restore dopamine levels when administered alone (MPTP treated mice [1]) | neuroprotection effect / cell survival (% viable cells) (PC12 cells [3]) | neuroprotection effect / cell survival (% viable cells) (PC12 cells [4]) | further results
1 | CN1CC=C(c2ccccc2)CC1 [MPTP, N-methyl-4-phenyl-1,2,3,6-tetrahydropyridine] | – | – | – | depletion in dopamine levels relative to naïve mice (MPTP treated mice [1]; MPTP treatment alone): over 70%; decrease in locomotion activity (MPTP treated mice [2]): about 30%
2 | CCCN[C@H]1CCc2nc(N)sc2C1 [pramipexole] | higher than 1 mg/kg | – | – | –
3 | C#CCN[C@@H]1CCc2ccccc21 [rasagiline] | at least 0.5 mg/kg | the effect on neuroprotection was minor | the effect on neuroprotection was minor | increase in dopamine levels (MPTP treated mice [1]; high doses alone: 0.1 mg/kg rasagiline, 1 mg/kg pramipexole): significant but small increase; restoration of dopamine levels (MPTP treated mice [1]; low doses: rasagiline 0.05 mg/kg, pramipexole 0.5 mg/kg, alone or combined): did not cause a significant restoration of dopamine levels
4 | CCCN(CCC)CCc1cccc2c1CC(=O)N2 [ropinirole] | – | the effect on neuroprotection was minor | the effect on neuroprotection was minor | –
5 | C#CCN(C)[C@H](C)Cc1ccccc1 [selegiline] | – | the effect on neuroprotection was minor | the effect on neuroprotection was minor | –
